According to patent US8546409B2, “Methods of treatment for solid tumors” (priority 2009, dated 2013):
Read-outs that look alike come from different tables or passages of the source.

Legend:
p110α [1] = biological target: p110α (Homo sapiens, UniProt P42336); test: Chick embryo fibroblast (CEF) transformation assay, p110α; type: cell-based; details: read-out: EC-50 for functional activity of p110α, highest concentration tested 2000 nM
Excerpt: Moreover, compound I has comparatively low activity on p110α in a cell-transformation system designed to measure functional activity of these kinases, but is a potent inhibitor of both p110β and p110δ in that assay. See Example 1. This chick embryo fibroblast (CEF) transformation system has been reported as a useful way to assess the functional activity of the PI3K signaling pathway. Denley, et al., “Oncogenic signaling of class I PI3K isoforms,” Oncogene, vol. 27(18), 2561-74 (2008). Transformation of CEF cells in the assay depends upon functional kinase activity. Kang, et al., Proc. Nat'l Acad. Sci. USA, vol. 103(5), 1289-94 (2006). The readout of this assay is based on the frequency of transformation of CEF cells exposed to viral vectors carrying a specific p110 isoform of interest.
Chick embryo fibroblasts (CEF) are transduced with viral stocks with versions of the human genes for the individual PI3K isoforms p110α, p110β, p110δ and p110γ. These transduced CEF lines are then plated in a growth medium where oncogenically transformed cells form foci that can then be stained and counted. […] Denley A, Kang S, Karst U and Vogt PK, “Oncogenic signaling of class 1 PI3K isoforms.” Oncogene (2008) 27: 2561-2574. FIG. 3 illustrates the readout of this assay.

NCI-H226 = test: NCI panel growth inhibition, NCI-H226; type: cell-based; details: Homo sapiens, Non-Small Cell Lung Cancer
Excerpt: (§1) Compound I has also been tested in a battery of tumor cell assays known as the NCI panel.

HCT-15 = test: NCI panel growth inhibition, HCT-15; type: cell-based; details: Homo sapiens, Colon Cancer
Excerpt: as §1

NCI-H322M = test: NCI panel growth inhibition, NCI-H322M; type: cell-based; details: Homo sapiens, Non-Small Cell Lung Cancer
Excerpt: as §1

M14 = test: NCI panel growth inhibition, M14; type: cell-based; details: Homo sapiens, Melanoma
Excerpt: as §1

HCT-116 = test: NCI panel growth inhibition, HCT-116; type: cell-based; details: Homo sapiens, Colon Cancer
Excerpt: as §1

SK-OV-3 = test: NCI panel growth inhibition, SK-OV-3; type: cell-based; details: Homo sapiens, Ovarian
Excerpt: as §1

NCI-H23 = test: NCI panel growth inhibition, NCI-H23; type: cell-based; details: Homo sapiens, Non-Small Cell Lung Cancer
Excerpt: as §1

mTOR = mTOR (Homo sapiens, UniProt P42345); test: Inhibition of kinase activity of other lipid kinases, mTOR; type: biochemical; details: read-out: IC-50 for inhibition of kinase activity, mTOR
DU-145 = test: NCI panel growth inhibition, DU-145; type: cell-based; details: Homo sapiens, Prostate
Excerpt: as §1

PC-3 = test: NCI panel growth inhibition, PC-3; type: cell-based; details: Homo sapiens, Prostate
Excerpt: as §1

SF-268 = test: NCI panel growth inhibition, SF-268; type: cell-based; details: Homo sapiens, CNS Cancer
Excerpt: as §1

PIKC3 = PIKC3 (Homo sapiens, UniProt Q8NEB9); test: biochemical
Excerpt: This table provides IC-50's for inhibition of kinase activity of these other lipid kinases: […]

[2] = test system: Akt phosphorylation in T47D (breast cancer); test: Phosphorylation of Akt in T47D cells (FIG. 4); type: cell-based; details: 10 micromolar
Excerpt: This distinguishes compound I from other known PI3K inhibitors in development for treatment of solid tumors, which are believed to act primarily at the p110α isoform or on p110α plus other isoforms, or even on all PI3Ks plus mTOR.

SF-295 = test: NCI panel growth inhibition, SF-295; type: cell-based; details: Homo sapiens, CNS Cancer
Excerpt: as §1

MCF7 = test: NCI panel growth inhibition, MCF7; type: cell-based; details: Homo sapiens, Breast Cancer
Excerpt: as §1

HOP-92 = test: NCI panel growth inhibition, HOP-92; type: cell-based; details: Homo sapiens, Non-Small Cell Lung Cancer
Excerpt: as §1

MALME-3M = test: NCI panel growth inhibition, MALME-3M; type: cell-based; details: Homo sapiens, Melanoma
Excerpt: as §1

HT29 = test: NCI panel growth inhibition, HT29; type: cell-based; details: Homo sapiens, HT-29, Colon Cancer
Excerpt: as §1

p110α [3] = biological target: T1, p110α (Mus musculus, UniProt P42337); test: Cell-based p110α assay: PDGF-stimulated Akt phosphorylation in SW3T3 cells
T1 construct: endogenous in cells; host or cells: SW3T3 cells
Experimental: (§2) The p110α assay used SW3T3 cells stimulated by PDGF, and p110 kinase activity was measured by Akt phosphorylation. The p110β activity was measured by lysophosphatidic acid stimulation of Akt phosphorylation in mouse embryonic fibroblasts. The activity of p110δ was measured by anti-FcεR1 antibody cross linking stimulation of CD63 movement to the surface of basophils. Finally, the activity of p110γ was measured by fMLP stimulation of CD63 antigen movement to the cell surface of basophils.

BT-549 = test: NCI panel growth inhibition, BT-549; type: cell-based; details: Homo sapiens, Breast Cancer
Excerpt: as §1

HOP-62 = test: NCI panel growth inhibition, HOP-62; type: cell-based; details: Homo sapiens, Non-Small Cell Lung Cancer
Excerpt: as §1

in vivo = test: in vivo; parameters: species or system mice; details: female, nu/nu, mouse
Experimental: At this range, which was the effective dosage used in the tests shown in FIGS. 8 and 9, plasma concentration of compound I reaches about 5000-7000 ng/mL.
Compound I was administered in a single dose at a rate of 30 mg/kg to each test subject, and plasma levels were monitored for 12 hours thereafter. Plasma levels of Compound I peaked around 2-4 hours after administration in each case, and had essentially returned to zero 8 hours after the single dose at this rate, as shown in FIG. 10. The peak plasma concentration for these subjects, after a single injection at the dose shown to be effective for inhibiting tumor growth of each xenograft (see the preceding examples, and FIGS. 8-9) were generally below about 7000 ng/mL.

p110γ = biological target: T2, p110γ (Homo sapiens, UniProt P48736); test: Cell-based p110γ assay: fMLP stimulated CD63 movement to surface of basophils
T2 construct: endogenous in cells; host or cells: basophils
Experimental: as §2

HS 578T = test: NCI panel growth inhibition, HS 578T; type: cell-based; details: Homo sapiens, Breast Cancer
Excerpt: as §1

UACC-257 = test: NCI panel growth inhibition, UACC-257; type: cell-based; details: Homo sapiens, Melanoma
Excerpt: as §1

ADR-RES = test: NCI panel growth inhibition, ADR-RES; type: cell-based; details: Breast Cancer
Excerpt: as §1

LOX IMVI = test: NCI panel growth inhibition, LOX IMVI; type: cell-based; details: Homo sapiens, Melanoma
Excerpt: as §1

T2 sequence (P48736 whole entry, species assumed): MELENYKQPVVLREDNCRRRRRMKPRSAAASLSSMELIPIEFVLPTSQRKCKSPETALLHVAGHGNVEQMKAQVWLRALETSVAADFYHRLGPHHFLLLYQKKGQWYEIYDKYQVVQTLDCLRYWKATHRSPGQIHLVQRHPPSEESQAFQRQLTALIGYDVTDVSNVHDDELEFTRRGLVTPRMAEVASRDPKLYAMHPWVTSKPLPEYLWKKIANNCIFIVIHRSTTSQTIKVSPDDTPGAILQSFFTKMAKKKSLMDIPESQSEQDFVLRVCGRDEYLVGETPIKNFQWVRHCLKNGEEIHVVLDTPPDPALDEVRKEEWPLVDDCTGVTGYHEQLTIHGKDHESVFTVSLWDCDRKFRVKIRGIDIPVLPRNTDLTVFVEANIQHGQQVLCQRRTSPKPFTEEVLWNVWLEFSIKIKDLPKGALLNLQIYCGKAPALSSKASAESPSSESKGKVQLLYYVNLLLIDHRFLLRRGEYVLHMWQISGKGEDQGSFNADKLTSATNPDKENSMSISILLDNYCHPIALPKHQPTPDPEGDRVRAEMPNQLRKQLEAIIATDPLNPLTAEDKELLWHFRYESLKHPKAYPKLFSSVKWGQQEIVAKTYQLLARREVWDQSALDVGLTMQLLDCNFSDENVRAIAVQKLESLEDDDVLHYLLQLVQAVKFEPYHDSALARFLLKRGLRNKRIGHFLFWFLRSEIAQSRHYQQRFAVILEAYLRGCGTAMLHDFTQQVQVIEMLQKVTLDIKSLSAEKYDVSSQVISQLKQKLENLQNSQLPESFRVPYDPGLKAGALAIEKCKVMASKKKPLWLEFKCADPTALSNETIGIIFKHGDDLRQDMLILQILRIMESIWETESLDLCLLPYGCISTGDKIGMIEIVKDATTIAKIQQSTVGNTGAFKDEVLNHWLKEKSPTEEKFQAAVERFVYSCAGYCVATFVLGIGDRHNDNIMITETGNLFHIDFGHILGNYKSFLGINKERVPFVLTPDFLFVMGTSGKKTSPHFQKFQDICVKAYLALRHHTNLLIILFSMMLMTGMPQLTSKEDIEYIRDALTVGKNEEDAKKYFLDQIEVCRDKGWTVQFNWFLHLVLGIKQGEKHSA
Chain of p110α (Homo sapiens, UniProt P42336) (P42336 whole entry, stated change not applied, canonical isoform): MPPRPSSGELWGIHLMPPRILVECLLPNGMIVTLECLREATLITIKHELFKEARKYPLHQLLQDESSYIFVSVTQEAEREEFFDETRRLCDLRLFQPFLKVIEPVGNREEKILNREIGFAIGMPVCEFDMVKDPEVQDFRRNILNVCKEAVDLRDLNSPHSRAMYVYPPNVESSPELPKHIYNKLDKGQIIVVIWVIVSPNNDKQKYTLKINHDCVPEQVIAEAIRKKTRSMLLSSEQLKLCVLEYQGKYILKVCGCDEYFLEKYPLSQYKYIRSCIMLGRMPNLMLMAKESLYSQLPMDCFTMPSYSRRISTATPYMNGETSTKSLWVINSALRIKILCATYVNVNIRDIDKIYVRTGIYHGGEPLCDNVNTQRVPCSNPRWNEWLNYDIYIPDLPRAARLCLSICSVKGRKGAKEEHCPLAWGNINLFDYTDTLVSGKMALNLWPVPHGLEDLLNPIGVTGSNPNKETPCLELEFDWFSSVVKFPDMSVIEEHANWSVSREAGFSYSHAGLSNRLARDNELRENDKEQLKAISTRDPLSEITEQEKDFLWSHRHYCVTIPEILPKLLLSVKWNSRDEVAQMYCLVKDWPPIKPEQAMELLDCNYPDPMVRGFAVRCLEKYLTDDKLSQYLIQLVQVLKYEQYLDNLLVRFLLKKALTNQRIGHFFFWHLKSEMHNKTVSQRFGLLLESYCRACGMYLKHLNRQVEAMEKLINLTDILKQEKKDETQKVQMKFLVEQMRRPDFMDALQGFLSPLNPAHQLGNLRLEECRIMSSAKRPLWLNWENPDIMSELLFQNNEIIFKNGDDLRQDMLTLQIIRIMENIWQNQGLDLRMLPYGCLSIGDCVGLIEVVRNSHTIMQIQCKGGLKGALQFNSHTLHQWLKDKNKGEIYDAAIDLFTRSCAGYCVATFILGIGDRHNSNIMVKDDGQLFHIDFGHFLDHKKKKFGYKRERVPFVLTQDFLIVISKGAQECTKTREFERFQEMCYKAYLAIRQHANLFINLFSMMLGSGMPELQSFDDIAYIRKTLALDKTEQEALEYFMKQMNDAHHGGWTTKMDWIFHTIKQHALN
T1 sequence (P42337 whole entry): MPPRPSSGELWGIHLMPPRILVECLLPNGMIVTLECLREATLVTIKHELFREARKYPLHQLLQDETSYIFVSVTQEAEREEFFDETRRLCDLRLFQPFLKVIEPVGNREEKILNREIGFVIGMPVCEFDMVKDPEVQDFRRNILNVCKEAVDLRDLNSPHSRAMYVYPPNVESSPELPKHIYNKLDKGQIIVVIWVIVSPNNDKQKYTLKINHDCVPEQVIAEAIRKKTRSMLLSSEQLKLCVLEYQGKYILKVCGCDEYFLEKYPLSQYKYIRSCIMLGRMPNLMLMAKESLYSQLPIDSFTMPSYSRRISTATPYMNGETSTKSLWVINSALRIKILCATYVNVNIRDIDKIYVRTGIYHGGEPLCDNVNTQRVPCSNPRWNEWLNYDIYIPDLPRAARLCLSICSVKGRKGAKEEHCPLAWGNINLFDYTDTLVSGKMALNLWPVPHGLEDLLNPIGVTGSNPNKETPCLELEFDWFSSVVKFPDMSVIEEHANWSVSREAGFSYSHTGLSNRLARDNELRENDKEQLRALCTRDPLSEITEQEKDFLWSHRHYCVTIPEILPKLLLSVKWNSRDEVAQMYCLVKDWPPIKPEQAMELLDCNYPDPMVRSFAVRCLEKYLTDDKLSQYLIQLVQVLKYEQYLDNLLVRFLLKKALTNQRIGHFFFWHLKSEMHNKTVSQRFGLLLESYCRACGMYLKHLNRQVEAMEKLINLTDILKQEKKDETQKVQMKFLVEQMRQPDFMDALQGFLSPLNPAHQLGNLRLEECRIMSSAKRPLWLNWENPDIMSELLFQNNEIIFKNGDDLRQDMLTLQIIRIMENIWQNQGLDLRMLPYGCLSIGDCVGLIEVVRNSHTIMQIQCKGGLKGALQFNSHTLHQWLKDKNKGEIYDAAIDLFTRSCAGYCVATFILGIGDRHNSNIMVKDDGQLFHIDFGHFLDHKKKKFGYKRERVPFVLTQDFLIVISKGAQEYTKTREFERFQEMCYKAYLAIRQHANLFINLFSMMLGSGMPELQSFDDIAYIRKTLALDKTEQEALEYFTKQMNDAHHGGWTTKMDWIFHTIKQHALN
T1 sequence (P26450 whole entry partner): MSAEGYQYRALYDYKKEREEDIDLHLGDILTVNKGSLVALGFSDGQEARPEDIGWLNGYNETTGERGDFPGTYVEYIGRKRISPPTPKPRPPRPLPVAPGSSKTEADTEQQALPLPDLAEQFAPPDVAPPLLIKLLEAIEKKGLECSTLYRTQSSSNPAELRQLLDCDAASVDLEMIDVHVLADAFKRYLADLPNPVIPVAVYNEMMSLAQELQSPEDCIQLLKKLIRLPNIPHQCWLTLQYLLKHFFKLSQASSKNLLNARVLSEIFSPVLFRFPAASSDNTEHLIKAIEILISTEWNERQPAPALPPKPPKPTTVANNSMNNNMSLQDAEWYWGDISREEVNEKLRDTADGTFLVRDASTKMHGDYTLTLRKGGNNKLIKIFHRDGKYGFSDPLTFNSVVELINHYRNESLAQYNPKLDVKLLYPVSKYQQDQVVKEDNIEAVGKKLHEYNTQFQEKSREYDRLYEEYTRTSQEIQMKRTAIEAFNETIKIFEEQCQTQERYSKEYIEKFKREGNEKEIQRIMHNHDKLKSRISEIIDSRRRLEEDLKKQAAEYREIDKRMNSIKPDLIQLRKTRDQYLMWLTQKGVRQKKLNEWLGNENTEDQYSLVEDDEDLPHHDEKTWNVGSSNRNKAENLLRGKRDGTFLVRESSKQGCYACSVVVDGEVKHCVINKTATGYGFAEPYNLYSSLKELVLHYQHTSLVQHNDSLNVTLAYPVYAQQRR
Chain of PIKC3 (Q8NEB9 whole entry): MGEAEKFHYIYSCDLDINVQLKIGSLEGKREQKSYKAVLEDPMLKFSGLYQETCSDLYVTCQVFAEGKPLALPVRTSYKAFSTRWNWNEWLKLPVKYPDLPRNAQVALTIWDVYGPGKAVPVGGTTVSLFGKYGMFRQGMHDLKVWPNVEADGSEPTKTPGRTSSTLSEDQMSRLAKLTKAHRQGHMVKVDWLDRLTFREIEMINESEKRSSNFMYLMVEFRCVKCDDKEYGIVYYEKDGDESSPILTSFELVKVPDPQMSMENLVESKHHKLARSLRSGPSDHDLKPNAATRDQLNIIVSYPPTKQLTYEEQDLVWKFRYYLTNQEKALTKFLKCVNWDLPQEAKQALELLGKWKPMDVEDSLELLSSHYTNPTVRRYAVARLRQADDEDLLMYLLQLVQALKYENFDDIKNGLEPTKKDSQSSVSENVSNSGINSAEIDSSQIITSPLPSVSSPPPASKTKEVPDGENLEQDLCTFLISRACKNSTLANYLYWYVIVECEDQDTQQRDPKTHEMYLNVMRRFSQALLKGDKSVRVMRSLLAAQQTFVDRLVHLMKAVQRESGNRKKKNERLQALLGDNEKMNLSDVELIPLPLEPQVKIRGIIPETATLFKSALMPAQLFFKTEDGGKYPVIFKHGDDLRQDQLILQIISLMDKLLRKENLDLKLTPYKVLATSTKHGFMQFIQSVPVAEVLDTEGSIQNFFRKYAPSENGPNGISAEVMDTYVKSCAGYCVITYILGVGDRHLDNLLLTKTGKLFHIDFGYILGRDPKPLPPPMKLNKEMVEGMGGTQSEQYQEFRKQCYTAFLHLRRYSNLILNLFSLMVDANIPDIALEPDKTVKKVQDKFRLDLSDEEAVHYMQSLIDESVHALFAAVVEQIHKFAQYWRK

Work on C[C@H](Nc1ncnc2[nH]cnc12)c1nc2ccc(F)cc2c(=O)n1-c1ccccc1 [Compound I] yielded an EC50 (p110α [1]) of over 2 µM, a GI50 (NCI-H226) of 100 µM and a GI50 (HCT-15) of 30.3 µM. For the same molecule, the GI50 (NCI-H322M) was 10.5 µM, the GI50 (M14) was 88.9 µM and the GI50 (HCT-116) was 37.9 µM. It also gave a GI50 (SK-OV-3) of 4.02 µM, a GI50 (NCI-H23) of 100 µM and an IC50 (mTOR) of 100 µM. For the same molecule, the GI50 (DU-145) was 1.35 µM, the GI50 (PC-3) was 0.647 µM and the GI50 (SF-268) was 1.89 µM. For the same molecule, the IC50 (PIKC3) was 2.5 µM, the “Phosphorylation of Akt” value [2] was “inhibits phosphorylation of Akt” and the GI50 (SF-295) was 1.81 µM. The GI50 (MCF7) was 2.54 µM, the GI50 (HOP-92) was 0.3 µM and the GI50 (MALME-3M) was 4.58 µM. For the same molecule, the GI50 (HT29) was 16.5 µM, the EC50 (p110α [3]) was over 20 µM and the GI50 (BT-549) was 0.538 µM. For the same molecule, the GI50 (HOP-62) was 14.8 µM, the AUC (in vivo) was 18,000 ng-h/mL and the “Time after which plasma levels had essentially returned to zero” value (in vivo; 30 mg/kg) was 8 h. For the same molecule, the “Time of peak plasma level after administration” value (in vivo; 30 mg/kg) was 2 to 4 h, the AUC (in vivo; AUC) was 15000 ng·h/mL and the EC50 (p110γ; FB, read-out: Cell-based assay EC50 p110γ, FB) was 3 µM. The EC50 (p110γ; WB, read-out: Cell-based assay EC50 p110γ, WB) was 5.4 µM, the GI50 (HS 578T) was 2.24 µM and the GI50 (UACC-257) was 17.4 µM. It also gave a GI50 (ADR-RES) of 58.6 µM and a GI50 (LOX IMVI) of 36.1 µM.
